In this experiment the test system is depolarization-induced 3H-glutamate release from brain nerve terminals. Kind of experiment: Inhibition of 3H-glutamate release, high [K+] depolarization, rapid superfusion of synaptosomes. Particulars: rat brain synaptosomes; for % Inhibition of ^3H-Glu Rel @ 1 μM: 1 μM compound; for % Inhibition of ^3H-Glu Rel @ 0.3 μM: 0.3 μM compound; for % Inhibition of ^3H-Glu Rel @ 0.1 μM: 0.1 μM compound. Type of experiment: biochemical.

Structures are written as SMILES. Structures can show the parent of a compound that is named as a salt.

In the case of `CS(=O)(=O)O.N=C(Nc1ccc2c3c(cccc13)CC2)N1CCCc2ccccc21` [Example 7, N-(5-Acenaphthyl)-N′-(1,2,3,4-tetrahydroquinolinyl)guanidine.mesylate], the “% Inhibition of ^3H-Glu Rel @ 1 μM” value was determined as 20%. Further, under “3 μM compound”, the “% Inhibition of ^3H-Glu Rel @ 3 μM” value is 16%. For the molecule `Br.N=C(Nc1cccc(-c2ccccc2)c1)Nc1cccc(-c2ccccc2)c1` [Example 30, N,N′-Bis(3-biphenyl)guanidine.HBr], the “% Inhibition of ^3H-Glu Rel @ 1 μM” value came out at 25%. In the case of `Br.CC(C)(C)c1cccc(NC(=N)Nc2cccc(C(C)(C)C)c2)c1` [Example 31, N,N′-Di-(3-tert-butylphenyl)guanidine.HBr], the “% Inhibition of ^3H-Glu Rel @ 1 μM” value is 24%.

Turning to `Br.CCC(C)c1cccc(NC(=N)Nc2cccc(C(C)CC)c2)c1` (stereo not drawn) [Example 34, N,N′-Bis-(3-sec-butylphenyl)guanidine.HBr], the “% Inhibition of ^3H-Glu Rel @ 1 μM” value came to 63%. Turning to `Br.CN(C(=N)Nc1ccc(C(C)(C)C)cc1)c1ccc(C(C)(C)C)cc1` [Example 35, N,N′-Bis(4-tert-butylphenyl)-N-methylguanidine.HBr], the “% Inhibition of ^3H-Glu Rel @ 1 μM” value came to 61%. For `Br.CN(C(=N)N(C)c1ccc(C(C)(C)C)cc1)c1ccc(C(C)(C)C)cc1` [Example 36, N,N′-Bis(4-tert-butylphenyl)-N,N′-methylguanidine.HBr], the “% Inhibition of ^3H-Glu Rel @ 1 μM” value (1 µM) was determined as 67%. On to `CC(Cc1ccc(Cl)cc1)NC(=N)Nc1ccc2c3c(cccc13)CC2.Cl` (stereo not drawn) [Example 40, N-(5-Acenaphthyl)-N′-(1-methyl-2-(4-chlorophenyl)ethyl)guanidine.HCl], for which the “% Inhibition of ^3H-Glu Rel @ 0.3 μM” value was 46% and the “% Inhibition of ^3H-Glu Rel @ 1 μM” value was found to be 64%. Turning to `Cl.N=C(Nc1ccc2c3c(cccc13)CC2)NC(Cc1ccccc1)c1ccccc1` (stereo not drawn) [Example 41, N-(5-Acenaphthyl)-N′-(1,2-diphenylethyl)guanidine.HCl], the “% Inhibition of ^3H-Glu Rel @ 1 μM” value turned out to be 52%. As to `CCCCCN(C(=N)Nc1ccc(C(C)CC)cc1)c1ccc(C(C)CC)cc1.Cl` (stereo not drawn) [Example 46, N,N′-(sec-Butylphenyl)-N′-(n-pentyl)guanidine.HCl], the “% Inhibition of ^3H-Glu Rel @ 0.3 μM” value came out at 65% and the “% Inhibition of ^3H-Glu Rel @ 1 μM” value was 100%. Consider `CC(C)(C)c1ccc(CN(C(=N)N)c2cccc3ccccc23)cc1.Cl` [Example 47, N-(1-Naphthyl)-N-4(tert-butylbenzyl)guanidine.HCl], for which the “% Inhibition of ^3H-Glu Rel @ 1 μM” value amounted to 40%. Still for that read-out and setting: with `Cl.N=C(N)N(Cc1cccc(Oc2ccccc2)c1)c1ccc2c3c(cccc13)CC2` [Example 53, N-(5-Acenaphthyl)-N-(3-phenoxybenzyl)guanidine.HCl] the figure was 37%; with `Cl.N=C(N)N(Cc1ccc(I)cc1)c1ccc2c3c(cccc13)CC2` [Example 58, N-(5-Acenaphthyl)-N-(4-iodobenzyl)guanidine.HCl], 43%. For the molecule `N=C(N)N(Cc1ccc(OC(F)(F)F)cc1)c1ccc2c3c(cccc13)CC2` [Example 59, N-(5-Acenaphthyl)-N-(4-trifluaromethoxybenzyl)guanidine.HCl], the “% Inhibition of ^3H-Glu Rel @ 1 μM” value was 44%.

With `CCC(C)c1cccc(N(Cc2ccc(C(C)(C)C)cc2)C(=N)N)c1.Cl` (stereo not drawn) [Example 62, N-(3-sec-Butylphenyl)-N-(4-tert-butylbenzyl)guanidine.HCl], the “% Inhibition of ^3H-Glu Rel @ 1 μM” value is on record as 22%. For `CC(C)(C)c1ccc(CN(C(=N)N)c2cccc(C(C)(C)C)c2)cc1.Cl` [Example 63, N-(3-tert-Butylphenyl)-N-(4-tert-butylbenzyl)guanidine.HCl], the “% Inhibition of ^3H-Glu Rel @ 1 μM” value came out at 40%.

For the molecule `CCCCCOc1cccc(N(Cc2ccc(C(C)(C)C)cc2)C(=N)N)c1.Cl` [Example 64, N-(3-Pentoxyphenyl)-N-(4-tert-butylbenzyl)guanidine.HCl], the “% Inhibition of ^3H-Glu Rel @ 1 μM” value worked out at 41%. For the molecule `Cl.N=C(N)N(Cc1ccc(OCc2ccccc2)cc1)c1ccc2c3c(cccc13)CC2` [Example 65, N-(5-Acenaphthyl)-N-(4-benzyloxybenzyl)guanidine.HCl], the “% Inhibition of ^3H-Glu Rel @ 1 μM” value is reported as 42%. `CCC(C)c1ccc(N(Cc2ccc(OCc3ccccc3)cc2)C(=N)N)cc1.Cl` (stereo not drawn) [Example 66, N-(4-sec-Butylphenyl)-N-(4-benzyloxybenzyl)guanidine.HCl]: the “% Inhibition of ^3H-Glu Rel @ 1 μM” value amounted to 54%.

Turning to `Cl.N=C(N)N(Cc1ccc(OCc2ccccc2)cc1)c1ccc(OCc2ccccc2)cc1` [Example 67, N-(4-Benzyloxyphenyl)-N-(4-benzyloxybenzyl)guanidine.HCl], the “% Inhibition of ^3H-Glu Rel @ 1 μM” value was determined as 36%. With `Cl.N=C(N)N(Cc1cccc(OCc2ccccc2)c1)c1ccc2c3c(cccc13)CC2` [Example 68, N-(5-Acenaphthyl)-N-(3-benzyloxybenzyl)guanidine.HCl], the “% Inhibition of ^3H-Glu Rel @ 1 μM” value is recorded as 76%.

As to `CCC(C)c1ccc(N(Cc2ccc(C(C)(C)C)cc2)C(=N)NN2CCOCC2)cc1.Cl` (stereo not drawn) [Example 75, N-(4-sec-Butylphenyl)-N-(4-tert-butylbenzyl)-N′-(4-morpholinyl)guanidine.HCl], the “% Inhibition of ^3H-Glu Rel @ 0.3 μM” value amounted to 42%.

As to `CCCCOc1ccc(N(Cc2ccc(C(C)(C)C)cc2)C(=N)NC2CCNCC2)cc1.Cl` [Example 77, N-(4-Butoxyphenyl)-N-(4-tert-butylbenzyl)-N′-(4-piperidinyl)guanidine.HCl], the “% Inhibition of ^3H-Glu Rel @ 0.3 μM” value is 44%. In the case of `CCC(C)c1ccc(N(Cc2ccc(C(C)(C)C)cc2)C(=N)N2CCC(Cc3ccccc3)CC2)cc1.CS(=O)(=O)O` (stereo not drawn) [Example 78], the “% Inhibition of ^3H-Glu Rel @ 0.3 μM” value was determined as 22%.

As to `CCC(C)c1ccc(N(Cc2ccc(C(C)(C)C)cc2)C(=N)N2CCc3ccccc3C2)cc1.Cl` (stereo not drawn) [Example 80], the “% Inhibition of ^3H-Glu Rel @ 0.3 μM” value is on record as 68%. Same read-out and setting: with `CCC(C)c1ccc(N(Cc2ccc(C(C)(C)C)cc2)C(=N)NN2C(C)COCC2C)cc1.Cl` (stereo not drawn) [Example 82, N-(4-sec-Butylphenyl)-N-(4-tert-butylbenzyl)-N′-(3,5-dimethyl-4-morpholinyl)guanidine.HCl] the figure was 60%. As to `CCC(C)c1ccc(N(C)C(=N)N(Cc2ccc(C(C)(C)C)cc2)c2ccc(C(C)(C)C)cc2)cc1.Cl` (stereo not drawn) [Example 83, N-(4-tert-Butylphenyl)-N-(4-tert-butylbenzyl)-N′-(4-sec-butylphenyl)-N′-(methyl)guanidine.HCl], the “% Inhibition of ^3H-Glu Rel @ 0.3 μM” value was determined as 31% and the “% Inhibition of ^3H-Glu Rel @ 1 μM” value is on record as 63%. For `CCC(C)c1ccc(N(C)C(=N)N(Cc2ccc(C(C)(C)C)cc2)c2ccc(C(C)CC)cc2)cc1.Cl` (stereo not drawn) [Example 84, N-(4-sec-Butylphenyl)-N-(4-tert-butylbenzyl)-N′-(4-sec-butylphenyl)-N′-(methyl)guanidine.HCl], the “% Inhibition of ^3H-Glu Rel @ 1 μM” value was found to be 37%. `CCC(C)c1ccc(N(Cc2ccc(C(C)(C)C)cc2)C(=N)Nc2ccccc2)cc1.Cl` (stereo not drawn) [Example 85, N-(4-sec-Butylphenyl)-N-(4-tert-butylbenzyl)-N′-(phenyl)guanidine.HCl]: the “% Inhibition of ^3H-Glu Rel @ 0.3 μM” value is 55% and the “% Inhibition of ^3H-Glu Rel @ 1 μM” value is recorded as 100%.

Turning to `CCC(C)c1ccc(N(Cc2ccc(C(C)(C)C)cc2)C(=N)Nc2ccc(Cl)cc2)cc1.Cl` (stereo not drawn) [Example 86, N-(4-sec-Butylphenyl)-N-(4-tert-butylbenzyl)-N′-(4-chlorophenyl)guanidine.HCl], the “% Inhibition of ^3H-Glu Rel @ 0.1 μM” value was 16% and the “% Inhibition of ^3H-Glu Rel @ 0.3 μM” value was found to be 45%. Turning to `CCCCOc1ccc(N(Cc2ccc(C(C)(C)C)cc2)C(=N)Nc2ccccc2)cc1.Cl` [Example 87, N-(4-Butoxylphenyl)-N-(4-tert-butylbenzyl)-N′-(phenyl)guanidine.HCl], the “% Inhibition of ^3H-Glu Rel @ 0.3 μM” value stood at 36%. As to `CCC(C)c1ccc(N(Cc2ccc(C(C)(C)C)cc2)C(=N)N(C)c2ccccc2)cc1.Cl` (stereo not drawn) [Example 88, N-(4-sec-Butylphenyl)-N-(4-tert-butylbenzyl)-N′-(phenyl)-N′-methylguanidine.HCl], the “% Inhibition of ^3H-Glu Rel @ 0.3 μM” value was 77%.

As for `CCC(C)c1ccc(N(Cc2ccc(C(C)(C)C)cc2)C(=N)Nc2ccc(Cl)c(Cl)c2)cc1.Cl` (stereo not drawn) [Example 89, N-(4-sec-Butylphenyl)-N-(4-tert-butylbenzyl)-N′-(3,4-dichlorophenyl)guanidine.HCl], the “% Inhibition of ^3H-Glu Rel @ 0.3 μM” value is 21%. Regarding `CCCCCCc1ccc(N(Cc2ccc(C(C)(C)CCC)cc2)C(=N)Nc2ccccc2)cc1.Cl` [Example 90, N-(4-Hexylphenyl)-N-(4-tert-hexylbenzyl)-N′-phenylguanidine.HCl], the “% Inhibition of ^3H-Glu Rel @ 0.3 μM” value turned out to be 42%. Same read-out and setting: the same measure for `CCC(C)c1ccc(N(Cc2ccc(C(C)(C)C)cc2)C(=N)Nc2ccc(OCc3ccccc3)cc2)cc1.CS(=O)(=O)O` (stereo not drawn) [Example 91, N-(4-sec-Butylphenyl)-N-(4-tert-butylbenzyl)-N′-(4-benzyloxyphenyl)guanidine.mesylate]: 49%. For the molecule `CC(C)(C)c1ccc(NC(=N)Nc2ccc(OCc3ccccc3)cc2)cc1.Cl` [Example 93, N-(4-Benzyloxyphenyl)-N′-(4-tert-butylphenyl)guanidine.HCl], the “% Inhibition of ^3H-Glu Rel @ 0.3 μM” value is recorded as 48% and the “% Inhibition of ^3H-Glu Rel @ 1 μM” value came out at 91%. As to `CN(C(=N)Nc1ccc(C(C)(C)C)cc1)c1ccc(OCc2ccccc2)cc1.CS(=O)(=O)O` [Example 95, N-Methyl-N-4-benzyloxyphenyl-N′-(4-tert-butylphenyl)guanidin.mesylat], the “% Inhibition of ^3H-Glu Rel @ 0.3 μM” value was 44% and the “% Inhibition of ^3H-Glu Rel @ 1 μM” value was determined as 100%. As to `CCCCCCc1ccc(NC(=N)Nc2ccc(CCCCCC)cc2)cc1.CS(=O)(=O)O` [Example 96, N,N′-Bis-(4-Hexylphenyl)guanidine.mesylate], the “% Inhibition of ^3H-Glu Rel @ 0.1 μM” value worked out at 54% and the “% Inhibition of ^3H-Glu Rel @ 0.3 μM” value came out at 54%. For `CCOc1ccc(Cc2cccc(CCNC(=N)Nc3ccc(C(C)(C)C)cc3)c2)cc1.CS(=O)(=O)O` [Example 97, N-(3-(1-(4′-Ethoxy)benzyl)phenethyl)-N′-(4-tert-butylphenyl)guanidine.mesylate], the “% Inhibition of ^3H-Glu Rel @ 0.3 μM” value worked out at 31%. Regarding `CN(C(=N)Nc1ccc(OCc2ccccc2)cc1)c1ccc(C(C)(C)C)cc1.CS(=O)(=O)O` [Example 98, N-(4-Benzyloxyphenyl)-N′-methyl-N′-(4-tert-butylphenyl)guanidine.mesylate], the “% Inhibition of ^3H-Glu Rel @ 0.3 μM” value turned out to be 28%.

These data come from patent US6787569B1, “Therapeutic guanidines” (Cambridge NeuroScience, Inc., priority 1994, dated 2004).
